The values below come from ChEMBL document CHEMBL1133008, “AMP deaminase inhibitors. 2. Initial discovery of a non-nucleotide transition-state inhibitor series” (J Med Chem, 2000).

A word on the pKi: it is the Ki on a negative log10 scale, so that one unit is a factor of ten. Lower therefore signals a large Ki.

This assay addresses T1, Adenosine deaminase (Bos taurus, UniProt P56658).
T1 sequence (P56658 whole entry): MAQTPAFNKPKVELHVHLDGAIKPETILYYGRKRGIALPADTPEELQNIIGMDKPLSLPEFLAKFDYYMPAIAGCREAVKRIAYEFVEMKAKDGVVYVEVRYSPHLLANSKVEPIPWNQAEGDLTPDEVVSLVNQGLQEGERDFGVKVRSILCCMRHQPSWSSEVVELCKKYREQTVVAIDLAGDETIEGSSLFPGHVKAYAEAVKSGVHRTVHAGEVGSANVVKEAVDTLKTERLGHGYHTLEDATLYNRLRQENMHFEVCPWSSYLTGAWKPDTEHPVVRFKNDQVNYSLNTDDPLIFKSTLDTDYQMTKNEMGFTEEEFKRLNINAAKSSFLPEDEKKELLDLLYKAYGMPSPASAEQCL
Nature of the assay: Evaluated for the inhibition of calf intestinal Adenosine deaminase (ADA).

pKi: −log10 of the molar value.

`O=C(O)C(CCCCn1cnc2c1NC=NCC2O)(c1ccccc1)c1ccccc1` (centres undefined) gave a pKi of under 5.12.
The molecule `OCCCCCCn1cnc2c1N=CNCC2O` (centres undefined) showed a pKi of 5.44.
In the case of `CCOC(=O)CCCCCn1cnc2c1NC=NCC2O` (centres undefined), the pKi is 5.52.
As to `CCOC(=O)C(CCCCn1cnc2c1NC=NCC2O)c1ccccc1` (centres undefined), the negative-log Ki (pKi) was under 5.12.
The molecule `O=C(O)C(CCCCn1cnc2c1N=CNCC2O)c1ccccc1` (centres undefined) gave a negative-log Ki (pKi) of under 5.12.
On to `OCCCn1cnc2c1N=CNCC2O` (centres undefined), for which the pKi is under 5.12.
The value for `CCCn1cnc2c1NC=NCC2O` (centres undefined) was under 4.70.
Consider `O=C(O)C(CCCCn1cnc2c1NC=NCC2O)Cc1ccc(Br)cc1` (centres undefined), for which the pKi is under 5.12.
`CCOC(=O)C(CCCCn1cnc2c1NC=NCC2O)Cc1cccc(Br)c1` (centres undefined): the negative logarithm of the Ki (pKi) was under 5.12.
Consider `CCCCn1cnc2c1NC=NCC2O` (centres undefined), for which the negative-log Ki (pKi) is 4.77.
In the case of `O=C(O)CCCOCn1cnc2c1NC=NCC2O` (centres undefined), the negative logarithm of the Ki (pKi) is under 3.30.
In turn, `CCCCCCCCn1cnc2c1N=CNCC2O` (centres undefined) gave a pKi of 6.35.
Turning to `CC(C)(CCCCn1cnc2c1NC=NCC2O)C(=O)O` (centres undefined), the pKi was under 5.12.
With `N#CCCCn1cnc2c1N=CNCC2O` (centres undefined), the pKi is under 5.12.
The value for `CCn1cnc2c1NC=NCC2O` (centres undefined) was 4.55; that for `OCCCCCn1cnc2c1NC=NCC2O` (centres undefined) was 5.33.
`O=P(O)(O)CCCCCCn1cnc2c1N=CNCC2O` (centres undefined) showed a pKi of under 5.12.
With `CCOC(=O)C(CCCCn1cnc2c1NC=NCC2O)c1cccc(Br)c1` (centres undefined), the negative-log Ki (pKi) is under 5.12.
As to `N#CCCCCn1cnc2c1N=CNCC2O` (centres undefined), the negative-log Ki (pKi) was 4.85.
As to `O=P(O)(O)CCCCCn1cnc2c1NC=NCC2O` (centres undefined), the negative-log Ki (pKi) was under 3.30.
`O=C(O)C(CCCCn1cnc2c1NC=NCC2O)Cc1ccccc1` (centres undefined): the pKi was under 3.00.
The value for `O=C(O)C(CCCCn1cnc2c1N=CNCC2O)Cc1ccccc1Br` (centres undefined) was under 5.12; that for `OC1CN=CNc2c1ncn2CCCCCc1nnn[nH]1` (centres undefined) was under 5.12.
As to `O=C(O)CCCCn1cnc2c1NC=NCC2O` (centres undefined), the pKi was under 5.12.
For the molecule `COP(=O)(O)CCCCCCn1cnc2c1NC=NCC2O` (centres undefined), the negative-log Ki (pKi) is under 3.30.
The molecule `OCCn1cnc2c1NC=NCC2O` (centres undefined) gave a pKi of under 5.12.
With `N#CCCCCCCn1cnc2c1NC=NCC2O` (centres undefined), the negative logarithm of the Ki (pKi) is 6.00.
Regarding `NC(=O)CCCCCn1cnc2c1NC=NCC2O` (centres undefined), the pKi is 5.23.
With `O=C(O)CCCCCn1cnc2c1N=CNCC2O` (centres undefined), the pKi was 3.55.
To `O=C(O)CCCCCCn1cnc2c1N=CNCC2O` (centres undefined) belongs 3.60; to `O=C(O)C(CCCCn1cnc2c1NC=NCC2O)Cc1ccc(Cl)cc1` (centres undefined), under 5.12; to `COC(=O)CCCCn1cnc2c1N=CNCC2O` (centres undefined), 5.46.
As for `OCCCCn1cnc2c1N=CNCC2O` (centres undefined), the negative logarithm of the Ki (pKi) was 5.20.
Consider `OC1CN=CNc2c1ncn2Cc1ccccc1` (centres undefined), for which the pKi was 5.22.
Take `CCOC(=O)C(C)(CCCCn1cnc2c1NC=NCC2O)Cc1cccc(Br)c1` (centres undefined): the pKi was under 5.12.
Molecule `O=C(O)C1(CCCCn2cnc3c2N=CNCC3O)Cc2ccccc2C1` (centres undefined) had a pKi of under 5.12.
Molecule `O=C(O)C(CCCCn1cnc2c1N=CNCC2O)c1cccc(Br)c1` (centres undefined) showed a pKi of under 5.12.
Consider `O=C(O)C(CCCCn1cnc2c1NC=NCC2O)Cc1cccc(Br)c1` (centres undefined), for which the pKi is under 5.12.
With `O=C(O)CCCCCCCn1cnc2c1NC=NCC2O` (centres undefined), the negative-log Ki (pKi) was under 5.12.
To `COC(=O)CCCCCCCn1cnc2c1N=CNCC2O` (centres undefined) belongs 6.02.
The molecule `CC(C)CC(CCCCn1cnc2c1NC=NCC2O)(CC(C)C)C(=O)O` (centres undefined) showed a negative-log Ki (pKi) of 3.92.
To `O=C(O)C(CCCCn1cnc2c1N=CNCC2O)Cc1cccc(Cl)c1` (centres undefined) belongs under 5.12; to `CC(CCCCn1cnc2c1N=CNCC2O)(Cc1cccc(Br)c1)C(=O)O` (stereo in doubt; 7v), under 5.12; to `CC(CCCCn1cnc2c1N=CNCC2O)(Cc1cccc(Br)c1)C(=O)O` (stereo in doubt; 7w), under 5.12.
